The values below come from patent US5723719A, “Transgenic mouse as model for diseases involving dopaminergic dysfunction” (Health Research Inc., priority 1995, dated 1998).

Read-outs that look alike come from different tables or passages of the source.

Experiment [1] relates to chakragati mice. Nature of the experiment: Effect of apomorphine treatment on chakragati mice. Conditions: chakragati mice versus normal control mice. In kind it is in vivo, mouse.
For experiment [2], the system named is 6-OHDA-lesioned rodents. Conditions: cited from earlier work.
In experiment [3] the target is T1, dopamine D2 receptor (Mus musculus, UniProt P61168).
T1 construct: from tissue; host or cells: striatum of homozygous transgenic (TgX15, chakragati) mice and normal heterozygous litter-mates
Nature of the experiment: Radioligand binding assay of dopamine D2 receptor binding sites in striatum. The settings on record: mean ± s.e.m., read-out: KD (dissociation constant between ligand and receptor).
Method: Radioligand binding assays were performed to analyze the density of dopamine D2 receptor binding sites in the striatum of mice of the present invention and normal heterozygous mice. […] The density of dopamine D2 binding sites are assayed by the ability of the striata to maximally bind ^[MUT]-methylspiperone (Bmax). Dissociation constants (KD) between the ligand and receptor were also measured.

[4] abbreviates: rats unilaterally depleted of dopamine by 6-hydroxydopamine lesions (Ungerstedt 1971).

T1 sequence (P61168 whole entry): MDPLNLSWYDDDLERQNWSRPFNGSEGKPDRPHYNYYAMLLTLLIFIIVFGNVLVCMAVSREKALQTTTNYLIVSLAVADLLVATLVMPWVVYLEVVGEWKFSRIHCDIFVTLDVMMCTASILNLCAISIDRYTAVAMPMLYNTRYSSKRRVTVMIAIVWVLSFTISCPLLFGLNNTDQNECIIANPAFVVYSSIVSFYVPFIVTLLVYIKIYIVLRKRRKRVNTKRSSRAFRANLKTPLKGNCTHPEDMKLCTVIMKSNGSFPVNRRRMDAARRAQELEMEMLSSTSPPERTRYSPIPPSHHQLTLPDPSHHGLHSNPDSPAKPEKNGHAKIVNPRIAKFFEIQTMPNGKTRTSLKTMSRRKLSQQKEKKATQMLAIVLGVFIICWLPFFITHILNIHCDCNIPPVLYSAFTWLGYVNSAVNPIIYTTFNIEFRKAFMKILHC

Take `CN1CCc2cccc3c2[C@H]1Cc1ccc(O)c(O)c1-3` [apomorphine]: the “Effect of treatment on chakragati mice compared to normal control mice (circling)” value in experiment [1] was “not significantly differ compared to the normal control mice”. Further, the values for the Circling behavior elicited entry in experiment [2] (6-OHDA-lesioned rodents) and in experiment [2] (setting [4]) were “elicits robust circling behavior” and “high rates of circling behavior can be elicited”, respectively.

Broadly, the Kd is the equilibrium constant for the complex coming apart. For the compound `CN1CN(c2ccccc2)C2(CCN(CCCC(=O)c3ccc(F)cc3)CC2)C1=O` [^3 H-N-methylspiperone], the Kd was 0.073 ± 0.008 nM in experiment [3] (striata of heterozygous litter-mates) and 0.081 ± 0.013 nM in experiment [3] (striata of homozygous transgenic mice).

In the case of `CC(N)Cc1ccccc1` (stereo not drawn) [amphetamine], the Circling behavior elicited entry in experiment [2] (setting [4]) is listed as “high rates of circling behavior can be elicited”.
